Reference: US12077503B2, “Substituted cyclic amides and their use as herbicides” (FMC CORPORATION, priority 2015, dated 2024)
Where two headings read alike, the source gives them in different places.

Experiments:
Type in all cases: in vivo
Kochia (Kochia scoparia) [1] = assay: Test A preemergence; conditions: Bassia scoparia, pre-emergence, 240 h; for pest or weed control at 125 g/ha: 125 g ai/ha, 0 to 100 scale where 0 is no effect and 100 is complete control; for pest or weed control at 500 g/ha: 500 g ai/ha
How it was run: (§1)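 Seeded soil received test chemicals as a preemergence directed spray, and seedlings at one to two leaves, 2–10 cm tall, received them postemergence, in a non-phytotoxic, surfactant-containing solvent mixture. Pots were held in a greenhouse for approximately 10 d, then rated for injury from 0, no effect, to 100, complete control.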

[2] = tested on: barnyardgrass (Echinochloa crus-galli); assay: Test A preemergence; conditions: Echinochloa crus-galli, pre-emergence, 240 h; for pest or weed control at 125 g/ha: 125 g ai/ha, 0 to 100 scale where 0 is no effect and 100 is complete control; for pest or weed control at 500 g/ha: 500 g ai/ha
How it was run: as §1

[3] = tested on: giant foxtail (Setaria faberii); assay: Test A preemergence; conditions: Setaria faberi, pre-emergence, 240 h; for pest or weed control at 125 g/ha: 125 g ai/ha, 0 to 100 scale where 0 is no effect and 100 is complete control; for pest or weed control at 500 g/ha: 500 g ai/ha
How it was run: as §1

[4] = tested on: pigweed (Amaranthus retroflexus); assay: Test A preemergence; conditions: Amaranthus retroflexus, pre-emergence, 240 h; for pest or weed control at 125 g/ha: 125 g ai/ha, 0 to 100 scale where 0 is no effect and 100 is complete control; for pest or weed control at 500 g/ha: 500 g ai/ha
[5] = tested on: ragweed (common ragweed, Ambrosia elatior); assay: Test A preemergence; conditions: Ambrosia artemisiifolia, pre-emergence, 240 h; for pest or weed control at 500 g/ha: 500 g ai/ha
How it was run: as §1

[6] = tested on: ryegrass, Italian (Italian ryegrass, Lolium multiflorum); assay: Test A preemergence; conditions: Lolium multiflorum, pre-emergence, 240 h; for pest or weed control at 500 g/ha: 500 g ai/ha
How it was run: as §1

[7] = tested on: Galium (catchweed bedstraw, Galium aparine); assay: Test A postemergence; conditions: Galium, post-emergence, 240 h, 125 g ai/ha
How it was run: as §1

Kochia (Kochia scoparia) [8] = assay: Test A postemergence; conditions: Bassia scoparia, post-emergence, 240 h, 125 g ai/ha
How it was run: as §1

[9] = tested on: barnyardgrass (Echinochloa crus-galli); assay: Test A postemergence; conditions: Echinochloa crus-galli, post-emergence, 240 h, 125 g ai/ha
How it was run: as §1

[10] = tested on: blackgrass (Alopecurus myosuroides); assay: Test A postemergence; conditions: Alopecurus myosuroides, post-emergence, 240 h, 125 g ai/ha
How it was run: as §1

corn (Zea mays) = assay: Test A postemergence; conditions: Zea mays, post-emergence, 240 h, 125 g ai/ha; for Corn plant response rating (crop injury, 0 = no effect, 100 = complete kill) at 125 g/ha: Postemergence, visual injury after approximately 10 d, 0 to 100 scale where 0 is no effect and 100 is complete control
How it was run: as §1

[11] = tested on: giant foxtail (Setaria faberii); assay: Test A postemergence; conditions: Setaria faberi, post-emergence, 240 h, 125 g ai/ha
How it was run: as §1

[12] = tested on: pigweed (Amaranthus retroflexus); assay: Test A postemergence; conditions: Amaranthus retroflexus, post-emergence, 240 h, 125 g ai/ha
How it was run: as §1

[13] = tested on: ragweed (common ragweed, Ambrosia elatior); assay: Test A postemergence; conditions: Ambrosia artemisiifolia, post-emergence, 240 h, 125 g ai/ha
How it was run: as §1

[14] = tested on: ryegrass, Italian (Italian ryegrass, Lolium multiflorum); assay: Test A postemergence; conditions: Lolium multiflorum, post-emergence, 240 h, 125 g ai/ha
How it was run: as §1

[15] = tested on: wheat (Triticum aestivum); assay: Test A postemergence; conditions: Triticum aestivum, post-emergence, 240 h, 125 g ai/ha
How it was run: as §1

[16] = preemergence, read-out: Kochia plant response rating
[17] = preemergence, visual injury rating about 10 d after treatment, 0 to 100 scale (0 no effect, 100 complete control), read-out: Kochia plant response rating
[18] = preemergence, read-out: Barnyardgrass plant response rating
[19] = preemergence, visual injury rating about 10 d after treatment, 0 to 100 scale (0 no effect, 100 complete control), read-out: Barnyardgrass plant response rating
[20] = preemergence, read-out: Foxtail, Giant plant response rating
[21] = preemergence, visual injury rating about 10 d after treatment, 0 to 100 scale (0 no effect, 100 complete control), read-out: Foxtail, Giant plant response rating
[22] = preemergence, read-out: Pigweed plant response rating
[23] = preemergence, visual injury rating about 10 d after treatment, 0 to 100 scale (0 no effect, 100 complete control), read-out: Pigweed plant response rating
[24] = preemergence, visual injury rating about 10 d after treatment, 0 to 100 scale (0 no effect, 100 complete control), read-out: Ragweed plant response rating
[25] = preemergence, visual injury rating about 10 d after treatment, 0 to 100 scale (0 no effect, 100 complete control), read-out: Ryegrass, Italian plant response rating
[26] = Postemergence, visual injury after approximately 10 d, 0 to 100 scale where 0 is no effect and 100 is complete control, read-out: Plant response rating, Galium
[27] = Postemergence, visual injury after approximately 10 d, 0 to 100 scale where 0 is no effect and 100 is complete control, read-out: Plant response rating, Kochia
[28] = Postemergence, visual injury after approximately 10 d, 0 to 100 scale where 0 is no effect and 100 is complete control, read-out: Plant response rating, Barnyardgrass
[29] = Postemergence, visual injury after approximately 10 d, 0 to 100 scale where 0 is no effect and 100 is complete control, read-out: Plant response rating, Blackgrass
[30] = Postemergence, visual injury after approximately 10 d, 0 to 100 scale where 0 is no effect and 100 is complete control, read-out: Plant response rating, Foxtail, Giant
[31] = Postemergence, visual injury after approximately 10 d, 0 to 100 scale where 0 is no effect and 100 is complete control, read-out: Plant response rating, Pigweed
[32] = Postemergence, visual injury after approximately 10 d, 0 to 100 scale where 0 is no effect and 100 is complete control, read-out: Plant response rating, Ragweed
[33] = Postemergence, visual injury after approximately 10 d, 0 to 100 scale where 0 is no effect and 100 is complete control, read-out: Plant response rating, Ryegrass, Italian
[34] = Postemergence, visual injury after approximately 10 d, 0 to 100 scale where 0 is no effect and 100 is complete control, read-out: Plant response rating, Wheat

SMILES: Cc1cc([C@H]2CN(C)C(=O)[C@@H]2C(=O)Nc2ccccc2C(F)(F)F)ccc1Cl [Compound 932]
- pest or weed control at 125 g/ha (Kochia (Kochia scoparia) [1]; [16]): 40%
- pest or weed control at 500 g/ha (Kochia (Kochia scoparia) [1]; [17]): 70%
- pest or weed control at 125 g/ha [2, 18]: 90%
- pest or weed control at 500 g/ha [2, 19]: 90%
- pest or weed control at 125 g/ha [3, 20]: 90%
- pest or weed control at 500 g/ha [3, 21]: 100%
- pest or weed control at 125 g/ha [4, 22]: 0%
- pest or weed control at 500 g/ha [4, 23]: 30%
- pest or weed control at 500 g/ha [5, 24]: 30%
- pest or weed control at 500 g/ha [6, 25]: 60%
- pest or weed control at 125 g/ha [7, 26]: 40%
- pest or weed control at 125 g/ha (Kochia (Kochia scoparia) [8]; [27]): 30%
- pest or weed control at 125 g/ha [9, 28]: 90%
- pest or weed control at 125 g/ha [10, 29]: 40%
- Corn plant response rating (crop injury, 0 = no effect, 100 = complete kill) at 125 g/ha (corn (Zea mays)): 20%
- pest or weed control at 125 g/ha [11, 30]: 90%
- pest or weed control at 125 g/ha [12, 31]: 40%
- pest or weed control at 125 g/ha [13, 32]: 0%
- pest or weed control at 125 g/ha [14, 33]: 30%
- plant injury at 125 g/ha [15, 34]: 30%

SMILES: C=CCOc1cccc(C2CN(C)C(=O)C2C(=O)Nc2cccc(F)c2F)c1 (centres unmarked) [Compound 933]
- pest or weed control at 125 g/ha (Kochia (Kochia scoparia) [1]; [16]): 50%
- pest or weed control at 500 g/ha (Kochia (Kochia scoparia) [1]; [17]): 90%
- pest or weed control at 125 g/ha [2, 18]: 90%
- pest or weed control at 500 g/ha [2, 19]: 100%
- pest or weed control at 125 g/ha [3, 20]: 90%
- pest or weed control at 500 g/ha [3, 21]: 100%
- pest or weed control at 125 g/ha [4, 22]: 30%
- pest or weed control at 500 g/ha [4, 23]: 30%
- pest or weed control at 500 g/ha [5, 24]: 90%
- pest or weed control at 500 g/ha [6, 25]: 70%
- pest or weed control at 125 g/ha [7, 26]: 50%
- pest or weed control at 125 g/ha (Kochia (Kochia scoparia) [8]; [27]): 50%
- pest or weed control at 125 g/ha [9, 28]: 90%
- pest or weed control at 125 g/ha [10, 29]: 20%
- Corn plant response rating (crop injury, 0 = no effect, 100 = complete kill) at 125 g/ha (corn (Zea mays)): 40%
- pest or weed control at 125 g/ha [11, 30]: 90%
- pest or weed control at 125 g/ha [12, 31]: 0%
- pest or weed control at 125 g/ha [13, 32]: 0%
- pest or weed control at 125 g/ha [14, 33]: 40%
- plant injury at 125 g/ha [15, 34]: 20%

SMILES: COc1c(F)ccc([C@H]2CNC(=O)[C@@H]2C(=O)Nc2cccc(F)c2F)c1Cl [Compound 882]
- pest or weed control at 125 g/ha (Kochia (Kochia scoparia) [1]; [16]): 70%
- pest or weed control at 500 g/ha (Kochia (Kochia scoparia) [1]; Preemergence, visual injury vs untreated controls after approximately 10 d, read-out: Kochia plant response rating (0 to 100 scale where 0 is no effect and 100 is complete control)): 90%
- pest or weed control at 125 g/ha [2, 18]: 90%
- pest or weed control at 500 g/ha ([2]; Preemergence, visual injury vs untreated controls after approximately 10 d, read-out: Barnyardgrass plant response rating (0 to 100 scale where 0 is no effect and 100 is complete control)): 90%
- pest or weed control at 125 g/ha [3, 20]: 70%
- pest or weed control at 500 g/ha ([3]; Preemergence, visual injury vs untreated controls after approximately 10 d, read-out: Foxtail, Giant plant response rating (0 to 100 scale where 0 is no effect and 100 is complete control)): 90%
- pest or weed control at 125 g/ha [4, 22]: 20%
- pest or weed control at 500 g/ha ([4]; Preemergence, visual injury vs untreated controls after approximately 10 d, read-out: Pigweed plant response rating (0 to 100 scale where 0 is no effect and 100 is complete control)): 20%
- pest or weed control at 125 g/ha ([5]; 125 g ai/ha, preemergence, 0 to 100 scale where 0 is no effect and 100 is complete control, read-out: Ragweed plant response rating): 30%
- pest or weed control at 500 g/ha ([5]; Preemergence, visual injury vs untreated controls after approximately 10 d, read-out: Ragweed plant response rating (0 to 100 scale where 0 is no effect and 100 is complete control)): 60%
- pest or weed control at 125 g/ha ([6]; 125 g ai/ha, preemergence, 0 to 100 scale where 0 is no effect and 100 is complete control, read-out: Ryegrass, Italian plant response rating): 0%
- pest or weed control at 500 g/ha ([6]; Preemergence, visual injury vs untreated controls after approximately 10 d, read-out: Ryegrass, Italian plant response rating (0 to 100 scale where 0 is no effect and 100 is complete control)): 30%
- pest or weed control at 125 g/ha ([7]; postemergence, visual injury rating after approximately 10 d, read-out: Galium plant response rating (0 to 100 scale, 0 no effect, 100 complete control)): 50%
- pest or weed control at 125 g/ha (Kochia (Kochia scoparia) [8]; postemergence, visual injury rating after approximately 10 d, read-out: Kochia plant response rating (0 to 100 scale, 0 no effect, 100 complete control)): 60%
- pest or weed control at 125 g/ha ([9]; postemergence, visual injury rating after approximately 10 d, read-out: Barnyardgrass plant response rating (0 to 100 scale, 0 no effect, 100 complete control)): 80%
- pest or weed control at 125 g/ha ([10]; postemergence, visual injury rating after approximately 10 d, read-out: Blackgrass plant response rating (0 to 100 scale, 0 no effect, 100 complete control)): 40%
- plant injury at 125 g/ha (corn (Zea mays); postemergence, visual injury rating after approximately 10 d, read-out: Corn plant response rating (0 to 100 scale, 0 no effect, 100 complete control)): 80%
- pest or weed control at 125 g/ha ([11]; postemergence, visual injury rating after approximately 10 d, read-out: Foxtail, Giant plant response rating (0 to 100 scale, 0 no effect, 100 complete control)): 70%
- pest or weed control at 125 g/ha ([12]; postemergence, visual injury rating after approximately 10 d, read-out: Pigweed plant response rating (0 to 100 scale, 0 no effect, 100 complete control)): 30%
- pest or weed control at 125 g/ha ([13]; postemergence, visual injury rating after approximately 10 d, read-out: Ragweed plant response rating (0 to 100 scale, 0 no effect, 100 complete control)): 0%
- pest or weed control at 125 g/ha ([14]; postemergence, visual injury rating after approximately 10 d, read-out: Ryegrass, Italian plant response rating (0 to 100 scale, 0 no effect, 100 complete control)): 40%
- plant injury at 125 g/ha ([15]; postemergence, visual injury rating after approximately 10 d, read-out: Wheat plant response rating (0 to 100 scale, 0 no effect, 100 complete control)): 0%
